Several values for one entry are separate records, joined by “and”; a condition that tells them apart may be missing. Identical values can stand only once. Like-named read-outs stand apart in the source and are kept apart here. Marks after values point to notes of the source that are not given here.
How the values were obtained:
[1] = system: Peptostreptococcus magnus
[2] = system: Fusobacterium nucleatum
[3] = system: Bovine Papillomavirus type I; experiment: BPV cell focus formation assay (Tables A, B); assay type: cell-based, bovine papilloma virus
Method: Cellulose sulfate was tested for its ability to inhibit BPV infection by cell focus formation assay (see Hermonat et al. (1992) for a description of this assay). Cellulose sulfate from Dextran Products Limited (Lot 80971 in the form of sodium cellulose sulfate, known as Ushercell J.) was mixed with BPV type I (obtained from bovine fibropapillomas) prior to adding the virus to mouse fibroblast line […] cells or mixed with these host cells first prior to adding the virus. In one molecular weight study, the Mr range of cellulose sulfate was about 750 to 20.3 million, with an average Mr of about 1.01 million. […] In another study, the average molecular weight was determined to be about 1.9 million with a peak Mr of about 2.3 million. Unless otherwise specified, the Mr is in daltons. The assay was repeated using different concentrations of cellulose sulfate and the results are shown below.

[4] = system: Prevotella melaminogenica; experiment: Broth method MIC; assay type: cell-based; conditions: for CS MIC: Broth (study 2)
[5] = system: Bacteroides fragilis; conditions: Agar
[6] = system: BPV-1; experiment: BPV-1 focus-forming assay, virus preincubated with compound (Table C); assay type: cell-based, bovine papilloma virus; conditions: C127 cell line
Method: In a similar study using the BPV-1 focus forming assay, the effect of the cellulose sulfate and dextran sulfate on BPV was tested. In this study, cellulose sulfate tested was as described above. Dextran sulfate used was from Dextran Products Limited (Lot DSM-122) prepared using dextan of average Mr of about 500,000 (based on viscosity) and is estimated to have a final average Mr greater than about 500,000 and may be about 1 to 1.1 million.
Microbicidal activity of the compounds was tested using the well-characterized BPV-1 focus-forming assay (Dvoretzky, I., R. Shober, S. K. Chattopadhyay, and D. R. Lowy. 1980. A quantitative in vitro focus assay for bovine papilloma virus. Virology 103:369-375), with modifications for microbicide testing (Hermonat, P. L., (1992) supra; Howett, M. K., et al. (1999) supra. The terms inhibiting or microbicidal activity when used are intended to refer broadly to microbe infection and/or microbe inactivating effect.
Aliquots of BPV-1 containing approximately 100-200 focus-forming units were preincubated with dilutions of compounds for 10 min at 37° C. prior to addition to cultures of mouse C127 cells. Cultures of C127 cells were set up in T25 tissue culture flasks (Corning, N.Y.), containing 3×10^5 cells per flask. Virus-compound mixtures in a total of 50 μl were then added to flasks in 1 ml of media, and an additional 3 ml of media added after 24 hrs culture. Media was changed every 3-4 days for a period of 2 weeks. Foci were enumerated following staining of the monolayer with crystal violet and counting stained foci microscopically. Each concentration of compound was tested in duplicate, and the mean±SD of foci number for the preincubation virus-drug concentration for each compound is shown below as Table C.
Clones were derived from the parental C127 cell line because of the consistent failure of BPV-1 to induce foci following several cell passages of the uncloned parental cell line. One clone, labeled C127-D10, which produced foci upon BPV-1 infection, was chosen for a repeat testing of the compounds. When this clone was tested for microbicidal activity, less compound was required to achieve high reduction in BPV-1-induced foci when compared to the uncloned parental-C127 cells.

## sodium cellulose sulfate
[1]
  CS MIC: >0.625** mg/ml
[2]
  CS MIC: >0.625** mg/ml
[3]; 40 μg/ml, mixed first with the virus
  inhibition of infection: partial inhibition
[3]; 40 μg/ml, pre-incubated with host cells
  inhibition of infection: Complete inhibition
[3]; 200 ug/ml, pre-incubated with the virus before addition to the host cells
  inhibition of infection: almost complete inhibition
[3]; 500 μg/ml, mixed with the virus or with the host cells
  formation of oncogenic foci by the virus: completely inhibited
[3]; Table A, 5.0 μg/ml, pre-incubated with host cells prior to addition to virus
  Viral-induced foci per culture: 72 foci per culture and 60 foci per culture
[3]; Table A, 5.0 μg/ml, pre-incubated with virus prior to addition to host cells
  Viral-induced foci per culture: 121 foci per culture and 97 foci per culture
[3]; Table A, 50 μg/ml, pre-incubated with host cells prior to addition to virus
  Viral-induced foci per culture: 10 foci per culture and 12 foci per culture
[3]; Table A, 50 μg/ml, pre-incubated with virus prior to addition to host cells
  Viral-induced foci per culture: 37 foci per culture and 32 foci per culture
[3]; Table A, 500 μg/ml, pre-incubated with host cells prior to addition to virus
  Viral-induced foci per culture: 0^A foci per culture and 0 foci per culture
[3]; Table A, 500 μg/ml, pre-incubated with virus prior to addition to host cells
  Viral-induced foci per culture: 0^A foci per culture and 0 foci per culture
[3]; Table A, 5000 μg/ml, pre-incubated with host cells prior to addition to virus
  Viral-induced foci per culture: 0^B foci per culture and 0 foci per culture
[3]; Table A, 5000 μg/ml, pre-incubated with virus prior to addition to host cells
  Viral-induced foci per culture: 0^B foci per culture and 0 foci per culture
[3]; Table B, 1.6 μg/ml, pre-incubated with virus prior to addition to host cells
  Viral-induced foci per culture: 196 foci per culture and 168 foci per culture
[3]; Table B, 8.0 μg/ml, pre-incubated with host cells prior to addition to virus
  Viral-induced foci per culture: 5 foci per culture and 3 foci per culture
[3]; Table B, 40 μg/ml, pre-incubated with host cells prior to addition to virus
  Viral-induced foci per culture: 0 foci per culture
[3]; Table B, 40 μg/ml, pre-incubated with virus prior to addition to host cells
  Viral-induced foci per culture: 116 foci per culture and 104 foci per culture
[3]; Table B, 200 μg/ml, pre-incubated with host cells prior to addition to virus
  Viral-induced foci per culture: 0 foci per culture
[3]; Table B, 200 μg/ml, pre-incubated with virus prior to addition to host cells
  Viral-induced foci per culture: 34 foci per culture and 42 foci per culture
[4]; at the concentrations tested
  growth inhibition: Neither one of the strains of Prevotella melaminogenica were inhibited
[4]; rma# 5657
  CS MIC: NI (not inhibited by 10 mg/ml (the highest concentration tested))
[4]; rma# 9052
  CS MIC: NI (not inhibited by 10 mg/ml (the highest concentration tested))
[5]; ATCC (first listed)
  CS MIC: >625 µg/mL
[5]; rma# 11647
  CS MIC: >625 µg/mL
[5]; rma# 11652
  CS MIC: >625 µg/mL
[6]; 1 mg/ml
  inhibition of papilloma virus infectivity: complete inhibition
[6]; 10 to 100 μg/ml
  inhibition of papilloma virus infectivity: moderate to high inhibition

Reference: patent US7235536B2, “Cellulose sulfate and other sulfated polysaccharides to prevent and treat papilloma virus infection and other infections” (Rush Presbyterian-St. Luke's Medical Center, priority 2000, dated 2007)
